Publication PMC6572135, “N-Methyl-D-glucamine–Calix[4]resorcinarene Conjugates: Self-Assembly and Biological Properties” (Molecules, 2019)
Values after ≈ are worked out from the molar mass of the structure shown.

Legend:
[1] = Dynamic light scattering, hydrodynamic diameter; format: physicochemical; conditions: water
C.albicans 855–653 [2] = assay: Fungicidal activity (MFC); format: cell-based; conditions: Candida albicans; C.albicans 855–653, fungicidal activity; read-out: Minimal Fungicidal Concentration (MFC)
Experimental: (§1) In vitro bacteriostatic and fungistatic activities of the macrocycles were evaluated against pathogenic representatives of Gram-positive bacteria (Staphylococcus aureus 209p, Bacillus cereus 8035), Gram-negative bacteria (Pseudomonas aeruginosa 9027, Escherichia coli F-50), and yeast (Trichophyton mentagrophytes var. gypseum 1773, Aspergillus niger BKMF-1119, Candida albicans 885–653). Minimal inhibitory concentrations (MICs) were estimated by conventional dilution methods for bacteria and fungi. The antibacterial and antifungal assays were performed in Hottinger broth (HiMe-dia Laboratories Pvt. Ltd. Mumbai, India) and Sabouraud dextrose broth (HiMedia Laboratories Pvt. Ltd.) (bacteria 3 × 10^5 cfu/mL and yeast 2 × 10^4 cfu/mL). The bactericidal and fungicidal activities were determined as described earlier. The tests were repeated three times.

[3] = Stability of water solutions; format: physicochemical; conditions: water without MG
C.albicans 855–653 [4] = assay: Fungistatic activity (MIC), dilution method; format: cell-based; conditions: Candida albicans; C.albicans 855–653, fungistatic activity; read-out: Minimal Inhibiting Concentration (MIC)
Experimental: as §1

B. cereus 8035 = assay: Bacteriostatic activity (MIC), dilution method; format: cell-based; conditions: Bacillus cereus; B. cereus 8035, bacteriostatic activity; read-out: Minimal Inhibiting Concentration (MIC)
Experimental: as §1

S. aureus 209P = assay: Bacteriostatic activity (MIC), dilution method; format: cell-based; conditions: Staphylococcus aureus, read-out: Minimal Inhibiting Concentration (MIC)
Experimental: as §1

[5] = Zeta potential by electrophoretic light scattering; format: physicochemical; conditions: water solution, 25 °C; GCR-2 in the presence of two-fold excess MG; concentration not given
Experimental: Formation of aggregates with increasing GCR-1 concentration was confirmed by the DLS method. In aqueous 1 mM GCR-1 solutions the formation of small particles with hydrodynamic diameter of 2.9 nm was observed (Figure 4a). This size is much more similar to that of a single molecule that to that of an aggregate. However, the bimodal distribution with peaks at 120 nm and 504 nm occurs for solution with 50 mM GCR-1. This could be attributed to the formation different stacked structures by head-to-head or head-to-tail interaction between GCR-1 molecules. […] Zeta-potential of GCR-1 aggregates obtained by electrophoretic light scattering in solution was −56.8 mV that correspond to sufficiently stable systems. Negative value was caused by dissociation of sulfonate groups of GCR-1 lower rim in aqueous medium. To confirm the morphology and dimension of the GCR-1 aggregates, TEM image was recorded (Figure 5a), where it was shown that GCR-1 molecules were assembled into non-well-defined large nanoparticles. The probable reason for such high polydispersity is multiple supramolecular interactions, such as Coulombic interactions between oppositely charged rims through head-to-tail self-assembly, hydrogen bonding between hydroxyl groups by head-to-head joining and π-π stacking between aromatic units of neighboring macrocycles (Figure 6a). […]

[6] = Conductometry, critical aggregation concentration; format: physicochemical; conditions: water solution, 25 °C; GCR-2 in the presence of two-fold excess of MG
Experimental: Firstly, self-assembly of GCR-1 was studied by conductometric measurements (Figure 1). Specific conductivity increases proportionately with the GCR-1 concentration in water solution. Inflection on the plot appears at 14 mM, and after this critical aggregation concentration (CAC) the increment rate of conductivity reduces because the aggregates transfer charge less efficiently than monomers. Remarkably, modification of calix[4]resorcinarene by N-methyl-D-glucamine fragment facilitates self-aggregation of macrocycle in water medium (Figure 1). The CAC value for calix[4]resorcinarene (CR-1) without meglumine units at the upper rim is 20 mM that is greater than that for meglumine-modified calix[4]resorcinarene. The driving forces of intermolecular aggregates’ formation are probably hydrogen bonds between hydroxyl groups on the GCR-1 upper rim, so the presence of additional OH-groups in the meglumine group reinforces this noncovalent interaction. A stable pH value, which can be observed over a wide range of concentrations, verifies that the N-methyl-D-glucamine fragment is an effective buffer component (Figure S4). […] As a result, the aggregation of this calix[4]resorcinarene was studied in water solutions at the presence of two-fold excess of N-methyl-D-glucamine (MG). […] Specific conductivity values were measured at least three times for each concentration. […]

Hydrodynamic diameter ([1]; 15 mM GCR-2–30 mM MG mixed system): 3.8 nm
Hydrodynamic diameter ([1]; mixed 1 mM GCR-2–2 mM MG system): 2 nm
Stability of water solutions [3]: unstable and eventually precipitate
MIC (C.albicans 855–653 [4]): > 500 µM
MIC (B. cereus 8035): 250 µM (≈ 343 µg/mL)
MIC (S. aureus 209P): 130 ± 10 µM (≈ 179 µg/mL)
Zeta-potential of aggregates [5]: −17.4 mV
CAC, conductometry [6]: 7.9 mM
melting point: > 350 °C
SMILES: CC1c2cc(c(O)c(CN(C)C[C@@H](O)[C@H](O)[C@@H](O)[C@@H](O)CO)c2O)C(C)c2cc(c(O)c(CN(C)C[C@@H](O)[C@H](O)[C@@H](O)[C@@H](O)CO)c2O)C(C)c2cc(c(O)c(CN(C)C[C@@H](O)[C@H](O)[C@@H](O)[C@@H](O)CO)c2O)C(C)c2cc1c(O)c(CN(C)C[C@@H](O)[C@H](O)[C@@H](O)[C@@H](O)CO)c2O (stereo partly drawn) [GCR-2, N-methyl-D-glucaminemethyl methylcalix[4]resorcinarene]
MFC (C.albicans 855–653 [2]): > 500 µM
